Measurements from ChEMBL document CHEMBL4402573, “Discovery and Optimization of α-Mangostin Derivatives as Novel PDE4 Inhibitors for the Treatment of Vascular Dementia” (J Med Chem, 2020).
Calls of active or inactive are those of the source. No cut-off for these calls is given here.

What was measured:
[1] = target: Cytochrome P450 2D6 (Homo sapiens, UniProt P10635); experiment: Inhibition of human CYP2D6; format: ADME
[2] = organism: Homo sapiens; experiment: Selectivity index, ratio of IC50 for human PDE7A1 (130 to 482 residues) expressed in Escherichia coli BL21 codon-plus cells to IC50 for human PDE4D2 (86 to 413 residues) expressed in Escherichia coli BL21 codon-plus cells
[3] = target: 3',5'-cyclic-AMP phosphodiesterase 4D (Homo sapiens, UniProt Q08499); experiment: Inhibition of human PDE4D2 (86 to 413 residues) expressed in Escherichia coli BL21 codon-plus cells using [3H]cAMP as substrate incubated for 15 mins by liquid scintillation counting method
[4] = target: Voltage-gated inwardly rectifying potassium channel KCNH2 (Homo sapiens, UniProt Q12809); experiment: Inhibition of human ERG expressed in CHO cells by automated patch clamp electrophysiology; format: cell-based
[5] = Inhibition of human PDE4D7 (1 to 748 residues) expressed in Escherichia coli BL21 codon-plus cells using [3H]cAMP as substrate incubated for 15 mins by liquid scintillation counting method
[6] = target: High affinity cGMP-specific 3',5'-cyclic phosphodiesterase 9A (Homo sapiens, UniProt O76083); experiment: Inhibition of human PDE9A2 (181 to 506 residues) expressed in Escherichia coli BL21 codon-plus cells using [3H]cGMP as substrate incubated for 15 mins by liquid scintillation counting method
[7] = tested on: Mus musculus; experiment: Anti-VaD activity against UCCAO-induced spatial memory deficient C57BL/6J mouse model assessed as improvement in spatial learning and memory by measuring decrease in error time at 10 mg/kg, po administered for 21 days by passive avoidance test; format: functional, organism-based
[8] = AUC(0 to t) in Sprague-Dawley rat at 2.5 mg/kg, iv measured upto 24 hrs by LC-MS/MS analysis; format: ADME, organism-based; design: dose 2.5 mg/kg, time < 24 hr, route intravenous; conditions: in vivo
[9] = target: cGMP-inhibited 3',5'-cyclic phosphodiesterase 3A (Homo sapiens, UniProt Q14432); experiment: Inhibition of human PDE3A (679 to 1087 residues) expressed in Escherichia coli BL21 codon-plus cells using [3H]cAMP as substrate incubated for 15 mins by liquid scintillation counting method
[10] = AUC(0 to t) in Sprague-Dawley rat at 5 mg/kg, po measured upto 24 hrs by LC-MS/MS analysis; format: ADME, organism-based; design: dose 5 mg/kg, time < 24 hr, route oral; conditions: in vivo
[11] = target: cGMP-dependent 3',5'-cyclic phosphodiesterase (Homo sapiens, UniProt O00408); experiment: Inhibition of human PDE2A (580 to 919 residues) expressed in Escherichia coli BL21 codon-plus cells using [3H]cGMP as substrate incubated for 15 mins by liquid scintillation counting method
[12] = tested on: Mus musculus; experiment: Anti-VaD activity against UCCAO-induced spatial memory deficient C57BL/6J mouse model assessed as improvement in spatial learning and memory by measuring increase in residence time on the platform at 10 mg/kg, po administered for 21 days by Morris water maze test; format: functional, organism-based
[13] = Half life in Sprague-Dawley rat at 2.5 mg/kg, iv measured upto 24 hrs by LC-MS/MS analysis; format: ADME, organism-based; conditions: in vivo
[14] = tested on: RAW264.7; experiment: Antiinflammatory activity in mouse RAW264.7 assessed as reduction in LPS-induced NO production incubated for 24 hrs by Griess method; format: functional, cell-based
[15] = target: T1, 3',5'-cyclic-AMP phosphodiesterase 4B (Homo sapiens, UniProt Q07343); experiment: Partial inhibition of human PDE4B1 (1 to 736 residues) expressed in Escherichia coli BL21 codon-plus cells using [3H]cAMP as substrate incubated with compound at high concentrations for 15 mins by liquid scintillation counting method relative to control
[16] = organism: Homo sapiens; experiment: Selectivity index, ratio of IC50 for human PDE3A (679 to 1087 residues) expressed in Escherichia coli BL21 codon-plus cells to IC50 for human PDE4D2 (86 to 413 residues) expressed in Escherichia coli BL21 codon-plus cells
[17] = Cmax in Sprague-Dawley rat at 2.5 mg/kg, iv measured upto 24 hrs by LC-MS/MS analysis; format: ADME, organism-based; design: dose 2.5 mg/kg, route intravenous; conditions: in vivo
[18] = Toxicity in Beagle dog assessed as animals exhibiting emesis at 5 mg/kg, po observed for 180 mins; format: organism-based, Canis lupus familiaris; conditions: in vivo, 3 h
[19] = target: High affinity 3',5'-cyclic-AMP phosphodiesterase 7A (Homo sapiens, UniProt Q13946); experiment: Inhibition of human PDE7A1 (130 to 482 residues) expressed in Escherichia coli BL21 codon-plus cells using [3H]cAMP as substrate incubated for 15 mins by liquid scintillation counting method
[20] = target: Cytochrome P450 3A4 (Homo sapiens, UniProt P08684); experiment: Inhibition of human CYP3A4; format: ADME
[21] = Acute toxicity in Kunming mouse at >=1.5 g/kg, po administered as single dose and measured for 14 days; format: organism-based; conditions: in vivo, 1500 mg/kg, 336 h
[22] = target: Cytochrome P450 2B6 (Homo sapiens, UniProt P20813); experiment: Inhibition of human CYP2B6; format: ADME
[23] = organism: Homo sapiens; experiment: Selectivity index, ratio of IC50 for human PDE5A1 (535 to 860 residues) expressed in Escherichia coli BL21 codon-plus cells to IC50 for human PDE4D2 (86 to 413 residues) expressed in Escherichia coli BL21 codon-plus cells
[24] = target: T1, 3',5'-cyclic-AMP phosphodiesterase 4B; experiment: Inhibition of human PDE4B1 (1 to 736 residues) expressed in Escherichia coli BL21 codon-plus cells using [3H]cAMP as substrate incubated for 15 mins by liquid scintillation counting method
[25] = target: T1, 3',5'-cyclic-AMP phosphodiesterase 4B; experiment: Inhibition of human PDE4B2 (152 to 487 residues) expressed in Escherichia coli BL21 codon-plus cells using [3H]cAMP as substrate incubated for 15 mins by liquid scintillation counting method
[26] = organism: Homo sapiens; experiment: Selectivity index, ratio of IC50 for human PDE10A2 (449 to 770 residues) expressed in Escherichia coli BL21 codon-plus cells to IC50 for human PDE4D2 (86 to 413 residues) expressed in Escherichia coli BL21 codon-plus cells
[27] = Tmax in Sprague-Dawley rat at 5 mg/kg, po measured upto 24 hrs by LC-MS/MS analysis; format: ADME, organism-based; conditions: in vivo
[28] = Cmax in Sprague-Dawley rat at 5 mg/kg, po measured upto 24 hrs by LC-MS/MS analysis; format: ADME, organism-based; design: dose 5 mg/kg, route oral; conditions: in vivo
[29] = target: cGMP-specific 3',5'-cyclic phosphodiesterase (Homo sapiens, UniProt O76074); experiment: Inhibition of human PDE5A1 (535 to 860 residues) expressed in Escherichia coli BL21 codon-plus cells using [3H]cGMP as substrate incubated for 15 mins by liquid scintillation counting method
[30] = AUC(0 to infinity) in Sprague-Dawley rat at 2.5 mg/kg, iv measured upto 24 hrs by LC-MS/MS analysis; format: ADME, organism-based; design: dose 2.5 mg/kg, route intravenous, time infinity; conditions: in vivo
[31] = organism: Homo sapiens; experiment: Selectivity index, ratio of IC50 for human PDE8A1 (480 to 820 residues) expressed in Escherichia coli BL21 codon-plus cells to IC50 for human PDE4D2 (86 to 413 residues) expressed in Escherichia coli BL21 codon-plus cells

T1 sequence (Q07343 whole entry, the tested form may be a part): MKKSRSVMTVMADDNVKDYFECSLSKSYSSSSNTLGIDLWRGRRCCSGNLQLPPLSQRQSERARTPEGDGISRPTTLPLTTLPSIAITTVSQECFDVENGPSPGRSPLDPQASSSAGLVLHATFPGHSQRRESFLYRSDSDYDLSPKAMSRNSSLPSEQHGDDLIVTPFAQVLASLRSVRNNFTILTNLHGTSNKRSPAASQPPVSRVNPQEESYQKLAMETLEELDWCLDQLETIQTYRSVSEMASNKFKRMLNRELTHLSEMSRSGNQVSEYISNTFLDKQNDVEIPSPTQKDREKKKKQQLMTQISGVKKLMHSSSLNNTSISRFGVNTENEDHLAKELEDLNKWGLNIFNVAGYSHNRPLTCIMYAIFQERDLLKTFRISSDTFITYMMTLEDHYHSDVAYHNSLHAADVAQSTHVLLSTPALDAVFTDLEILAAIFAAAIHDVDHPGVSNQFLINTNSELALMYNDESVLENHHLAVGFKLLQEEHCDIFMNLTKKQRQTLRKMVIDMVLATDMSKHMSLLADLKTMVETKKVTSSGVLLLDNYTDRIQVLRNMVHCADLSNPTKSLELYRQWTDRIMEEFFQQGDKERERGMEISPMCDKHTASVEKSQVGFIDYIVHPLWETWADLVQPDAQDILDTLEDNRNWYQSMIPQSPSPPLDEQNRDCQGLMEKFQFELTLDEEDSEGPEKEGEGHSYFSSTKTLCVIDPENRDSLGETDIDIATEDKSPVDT
Cytochrome P450 2B6, sequence (P20813 whole entry, the tested form may be a part): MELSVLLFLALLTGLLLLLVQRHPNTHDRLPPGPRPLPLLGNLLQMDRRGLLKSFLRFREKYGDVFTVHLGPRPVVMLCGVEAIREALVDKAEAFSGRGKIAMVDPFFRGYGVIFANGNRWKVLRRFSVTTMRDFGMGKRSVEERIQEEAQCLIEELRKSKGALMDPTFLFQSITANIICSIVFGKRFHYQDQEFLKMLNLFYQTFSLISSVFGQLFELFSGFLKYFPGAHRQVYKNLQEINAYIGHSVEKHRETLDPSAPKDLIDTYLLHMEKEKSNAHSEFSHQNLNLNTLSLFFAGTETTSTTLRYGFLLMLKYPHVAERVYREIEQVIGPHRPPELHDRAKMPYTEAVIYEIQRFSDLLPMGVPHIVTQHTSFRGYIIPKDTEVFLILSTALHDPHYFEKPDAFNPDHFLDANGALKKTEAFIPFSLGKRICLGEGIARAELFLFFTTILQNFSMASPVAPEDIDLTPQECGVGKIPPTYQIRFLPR
Cytochrome P450 2D6, sequence (P10635 whole entry, the tested form may be a part): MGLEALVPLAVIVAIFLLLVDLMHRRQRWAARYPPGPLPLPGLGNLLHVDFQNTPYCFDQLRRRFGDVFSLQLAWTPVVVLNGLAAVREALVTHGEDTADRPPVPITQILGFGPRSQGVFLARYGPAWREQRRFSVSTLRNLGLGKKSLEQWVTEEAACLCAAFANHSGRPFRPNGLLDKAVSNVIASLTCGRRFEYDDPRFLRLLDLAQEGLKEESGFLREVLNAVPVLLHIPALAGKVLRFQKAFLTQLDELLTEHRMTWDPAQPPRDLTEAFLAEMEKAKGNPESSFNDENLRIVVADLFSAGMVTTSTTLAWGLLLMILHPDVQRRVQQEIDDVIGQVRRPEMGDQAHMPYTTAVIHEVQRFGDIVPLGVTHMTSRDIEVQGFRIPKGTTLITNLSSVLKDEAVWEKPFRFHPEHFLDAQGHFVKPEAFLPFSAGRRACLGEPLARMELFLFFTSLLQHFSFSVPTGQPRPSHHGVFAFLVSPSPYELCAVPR
cGMP-dependent 3',5'-cyclic phosphodiesterase, sequence (O00408 whole entry, the tested form may be a part): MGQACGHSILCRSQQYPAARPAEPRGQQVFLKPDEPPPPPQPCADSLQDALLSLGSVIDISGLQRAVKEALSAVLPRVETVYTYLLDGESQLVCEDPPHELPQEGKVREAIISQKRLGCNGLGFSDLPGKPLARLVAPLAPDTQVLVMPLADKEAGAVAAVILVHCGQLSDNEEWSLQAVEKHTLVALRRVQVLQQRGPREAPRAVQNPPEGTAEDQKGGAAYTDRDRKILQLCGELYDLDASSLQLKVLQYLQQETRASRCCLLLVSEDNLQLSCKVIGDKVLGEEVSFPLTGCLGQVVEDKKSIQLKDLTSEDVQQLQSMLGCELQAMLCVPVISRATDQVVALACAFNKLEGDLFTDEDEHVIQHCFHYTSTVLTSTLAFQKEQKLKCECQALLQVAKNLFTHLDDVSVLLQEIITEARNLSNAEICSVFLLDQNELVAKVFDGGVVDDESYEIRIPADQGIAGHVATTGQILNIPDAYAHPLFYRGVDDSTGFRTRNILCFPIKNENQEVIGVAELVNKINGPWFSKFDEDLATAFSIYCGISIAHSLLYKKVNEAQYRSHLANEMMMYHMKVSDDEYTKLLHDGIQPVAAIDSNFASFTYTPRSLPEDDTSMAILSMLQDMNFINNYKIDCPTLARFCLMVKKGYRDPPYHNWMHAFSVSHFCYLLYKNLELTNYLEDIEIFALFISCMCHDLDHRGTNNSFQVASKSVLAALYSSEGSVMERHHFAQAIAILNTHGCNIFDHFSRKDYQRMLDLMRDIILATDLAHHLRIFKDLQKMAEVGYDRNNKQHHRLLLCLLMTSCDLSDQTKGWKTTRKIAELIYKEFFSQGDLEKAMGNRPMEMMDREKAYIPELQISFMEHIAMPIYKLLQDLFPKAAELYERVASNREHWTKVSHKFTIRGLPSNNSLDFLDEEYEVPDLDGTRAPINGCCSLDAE
Cytochrome P450 3A4, sequence (P08684 whole entry): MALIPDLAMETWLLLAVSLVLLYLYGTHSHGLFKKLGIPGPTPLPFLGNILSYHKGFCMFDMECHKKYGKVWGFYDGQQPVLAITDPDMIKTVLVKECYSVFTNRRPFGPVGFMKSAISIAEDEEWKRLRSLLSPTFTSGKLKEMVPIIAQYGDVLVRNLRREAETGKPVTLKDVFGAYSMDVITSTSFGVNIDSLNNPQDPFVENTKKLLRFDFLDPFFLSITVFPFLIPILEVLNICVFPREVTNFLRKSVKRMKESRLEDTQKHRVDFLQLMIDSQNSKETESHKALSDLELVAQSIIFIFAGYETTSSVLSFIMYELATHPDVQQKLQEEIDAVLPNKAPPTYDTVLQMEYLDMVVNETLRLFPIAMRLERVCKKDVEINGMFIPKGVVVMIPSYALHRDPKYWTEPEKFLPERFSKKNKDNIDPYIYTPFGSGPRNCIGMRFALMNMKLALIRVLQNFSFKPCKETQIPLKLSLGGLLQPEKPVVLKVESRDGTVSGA
High affinity 3',5'-cyclic-AMP phosphodiesterase 7A, sequence (Q13946 whole entry, the tested form may be a part): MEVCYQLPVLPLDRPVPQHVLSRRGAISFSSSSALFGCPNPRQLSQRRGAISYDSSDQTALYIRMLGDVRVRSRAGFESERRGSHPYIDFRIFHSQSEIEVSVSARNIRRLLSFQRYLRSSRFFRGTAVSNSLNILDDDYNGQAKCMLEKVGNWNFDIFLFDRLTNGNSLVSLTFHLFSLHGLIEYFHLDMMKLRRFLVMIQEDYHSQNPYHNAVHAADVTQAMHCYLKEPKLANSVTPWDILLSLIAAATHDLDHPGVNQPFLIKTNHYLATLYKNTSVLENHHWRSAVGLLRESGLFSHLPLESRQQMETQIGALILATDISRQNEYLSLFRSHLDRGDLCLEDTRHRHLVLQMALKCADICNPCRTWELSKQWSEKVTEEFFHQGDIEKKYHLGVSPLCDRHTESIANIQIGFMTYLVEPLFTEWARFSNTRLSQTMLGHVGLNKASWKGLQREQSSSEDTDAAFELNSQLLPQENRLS
cGMP-inhibited 3',5'-cyclic phosphodiesterase 3A, sequence (Q14432 whole entry, the tested form may be a part): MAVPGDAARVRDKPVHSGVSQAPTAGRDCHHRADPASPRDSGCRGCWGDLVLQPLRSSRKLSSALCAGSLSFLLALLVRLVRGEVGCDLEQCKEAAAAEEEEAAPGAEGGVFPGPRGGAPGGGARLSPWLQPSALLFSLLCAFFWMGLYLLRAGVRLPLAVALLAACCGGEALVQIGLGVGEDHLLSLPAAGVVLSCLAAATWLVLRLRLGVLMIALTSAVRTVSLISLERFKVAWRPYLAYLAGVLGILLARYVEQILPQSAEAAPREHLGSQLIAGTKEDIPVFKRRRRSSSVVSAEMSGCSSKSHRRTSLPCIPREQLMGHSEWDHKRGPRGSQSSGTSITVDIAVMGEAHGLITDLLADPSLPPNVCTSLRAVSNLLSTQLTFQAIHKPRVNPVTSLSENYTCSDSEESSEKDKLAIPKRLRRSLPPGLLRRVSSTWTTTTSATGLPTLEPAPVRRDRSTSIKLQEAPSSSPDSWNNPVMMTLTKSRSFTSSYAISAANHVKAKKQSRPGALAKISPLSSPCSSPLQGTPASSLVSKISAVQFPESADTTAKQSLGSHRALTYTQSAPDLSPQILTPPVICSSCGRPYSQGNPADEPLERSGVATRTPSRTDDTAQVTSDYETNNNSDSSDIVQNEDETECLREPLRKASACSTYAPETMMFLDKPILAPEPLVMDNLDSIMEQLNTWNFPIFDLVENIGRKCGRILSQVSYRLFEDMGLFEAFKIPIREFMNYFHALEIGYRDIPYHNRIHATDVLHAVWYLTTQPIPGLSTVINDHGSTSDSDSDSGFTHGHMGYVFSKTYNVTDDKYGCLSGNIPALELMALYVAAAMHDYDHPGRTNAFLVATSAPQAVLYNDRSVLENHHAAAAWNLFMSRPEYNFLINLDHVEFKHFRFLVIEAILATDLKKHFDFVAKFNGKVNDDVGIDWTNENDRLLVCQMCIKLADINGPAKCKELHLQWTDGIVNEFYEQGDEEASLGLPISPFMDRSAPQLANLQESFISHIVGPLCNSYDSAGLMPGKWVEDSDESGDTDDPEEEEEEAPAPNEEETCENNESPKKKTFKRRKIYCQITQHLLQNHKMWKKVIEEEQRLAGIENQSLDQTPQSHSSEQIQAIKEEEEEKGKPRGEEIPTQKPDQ

COc1c(OCCCCCCC(=O)O)cc2oc3cc4c(c(O)c3c(=O)c2c1CC=C(C)C)C=CC(C)(C)O4
IC50 [1]: > 10000 nM
Ratio IC50 [2]: 36
IC50 [3]: 17 nM
IC50 [4]: > 30000 nM
IC50 [5]: 9 nM
IC50 [6]: > 10000 nM
Activity [7]: Active
AUC(0-t) at 24 h [8]: 6670 ng·h/mL
IC50 [9]: > 10000 nM
AUC(0-t) at 24 h [10]: 4740 ng·h/mL
IC50 [11]: > 10000 nM
Activity [12]: Active
half-life [13]: 4.28 h
Activity [14]: Dose-dependent effect
inhibition [15]: 60%
Ratio IC50 [16]: > 580
Cmax [17]: 14100 ng/mL
Activity [18]: 0%
IC50 [19]: 620 nM
IC50 [20]: > 10000 nM
Activity [21]: Non-Toxic
IC50 [22]: > 10000 nM
Ratio IC50 [23]: 199
IC50 [24]: 8 nM
IC50 [25]: 10 nM
Ratio IC50 [26]: > 580
Tmax [27]: 4.67 h
Cmax [28]: 661 ng/mL
IC50 [29]: 3390 nM
AUC(0-inf) [30]: 6710 ng·h/mL
Ratio IC50 [31]: > 580
